# Where two headings read alike, the source gives them in different places.
# Legend:
# [1] = mouse, in vivo; for AUC0-24: po
# [2] = 13-week mouse toxicity and toxicokinetic study; details: in vivo; for AUC(0-t): AUC0-24
# Method: For toxicology assessment ten mice of each gender were placed in each group.
# Ophthalmic examinations were performed during Weeks −1 and 12.
# [3] = In vitro metabolism in human hepatocytes; details: male, human, hepatocytes, 4 h, 87 μM
# Method: Cryopreserved human hepatocytes (male) that are prepared by XenoTech, LLC (Lenexa, Kans.), are thawed on the day of use and resuspended in Waymouth's incubation media. The enzymatic activity of hepatocytes is monitored using 7-ethoxycoumarin and 7-hydroxycoumarin as substrates. […] The incubations are carried out for 4 hours with 1×10^6 viable cells/ml. […] At 0 and 4 hour, cell suspensions are extracted using two volumes of ice cold methanol. After centrifugation, the extracts are stored at −20° C. until further sample processing. The solvent in the samples are dried under a stream of nitrogen, and resuspended in methanol:water (1:1) before analysis.
# The extracts of the 4 hour incubation mixture are analyzed by liquid chromatography/electrospray ionization-mass spectrometry (LC/ESI-MS) in the positive and negative ion modes to screen for possible metabolites. HPLC Methods 1 and 2 are used to find potential metabolites, and the HPLC and mass spectrometry systems are described in Table 56. The same instrumentation and methods in HPLC Method 1 are used in HPLC Method 2 with the exception that the mobile phases and gradient are changed to 0.4% HCOOH in H2O for mobile A and CH3OH for mobile phase B. The mass spectrometer is LCQ™ Ion Trap Mass Spectrometer and is in either the positive or negative electrospray mode with the ion spray set at 4.5 kV. The capillary temperature is 250° C., the nitrogen sheath gas flow rate is ˜80 unit, the auxiliary nitrogen gas flow rate is 20 unit, and the collision gas is helium.
# [4] = 12-month dog toxicity and toxicokinetic study; assay type: in vivo; details: for Cmax / Tmax / AUC(0-t): beagle, dog, plasma, po; for AUC(0-t): read-out: AUC0-24; for body weight lower than control: Week 52
# Method: Blood samples were collected on Days 0, 91, 181, 268 and 358 from up to 4 animals/gender/group. Plasma samples collected on Days 91, 181, 268, as well as all plasma samples collected from the control group were not evaluated.
# For toxicology assessment four dogs of each gender were included in each group. Assessments included clinical observations, body weight, and food consumption measures which were recorded periodically during the study. Ophthalmic examinations were performed during Weeks 1, 12, 25, 38, 51, and 55 (recovery period). Electrocardiograms were recorded during Weeks 2, 12, 25, 38, and 51. Clinical pathology evaluations (hematology, serum chemistry, and urinalysis) were performed during Weeks 1, 12, 25, 38, 52, and 56 (recovery period). At termination, complete necropsies were performed on all dogs and selected organs were weighed. Selected tissues from the control and 20 (15) mg/kg/day group animals and animals euthanized in extremis were examined microscopically. Sections of livers from dogs in the control and 20 (15) mg/kg/day groups were collected at both the primary and 4-week post-treatment recovery necropsies for assessment of drug metabolism enzyme (microsomal cytochrome P450) activity.
# [5] = 26-week rat toxicity and toxicokinetic study; assay type: in vivo; details: for Tmax / AUC(0-t) / Cmax: po; for AUC(0-t): read-out: AUC0-24; for mean body weight lower than control: end of 4-week recovery; for mean cumulative body weight gain lower: end of treatment
# Method: A portion of the animals from each group was maintained for an additional 4-week post-treatment recovery period.
# For toxicology assessment, groups comprised thirty animals of each gender. Assessments included clinical observations, body weight, and food consumption measures noted periodically during the study. […] Ophthalmic examinations were performed during Weeks 1 and 13. […] In addition, the liver, vagina, and ovaries were identified as potential target tissues and were examined microscopically for all animals from all groups at the primary and recovery necropsies. […] 10 animals of each gender from each group were held to week 30 for a 4-week post-treatment recovery period.
# For the toxicokinetic studies, there were ten animals of each gender in each group.
# [6] = female, Crl:CD-1(ICR) BR, po, 10 mg/kg/day
# [7] = female, Crl:CD-1(ICR) BR, po, 30 mg/kg/day
# [8] = female, Crl:CD-1(ICR) BR, po, 100 mg/kg/day
# [9] = male, Crl:CD-1(ICR) BR, po, 10 mg/kg/day
# [10] = male, Crl:CD-1(ICR) BR, po, 30 mg/kg/day
# [11] = male, Crl:CD-1(ICR) BR, po, 100 mg/kg/day
# [12] = female, 2 mg/kg/day, females, 2 mg/kg/day, Day 0
# [13] = female, 2 mg/kg/day, females, 2 mg/kg/day, Day 358
# [14] = female, 6 mg/kg/day, females, 6 mg/kg/day, Day 0
# [15] = female, 6 mg/kg/day, females, 6 mg/kg/day, Day 358
# [16] = female, 15 mg/kg/day, females, 20 (15) mg/kg/day, Day 358
# [17] = female, 20 mg/kg/day, females, 20 (15) mg/kg/day, Day 0
# [18] = male, 2 mg/kg/day, males, 2 mg/kg/day, Day 0
# [19] = male, 2 mg/kg/day, males, 2 mg/kg/day, Day 358
# [20] = male, 6 mg/kg/day, males, 6 mg/kg/day, Day 0
# [21] = male, 6 mg/kg/day, males, 6 mg/kg/day, Day 358
# [22] = male, 15 mg/kg/day, males, 20 (15) mg/kg/day, Day 358
# [23] = male, 20 mg/kg/day, males, 20 (15) mg/kg/day, Day 0
# [24] = female, Crl:CD(SD)IGS BR, rat, in vivo, 8 mg/kg/day, females, 8 mg/kg/day, Day 0
# [25] = female, Crl:CD(SD)IGS BR, rat, in vivo, 25 mg/kg/day, females, 25 mg/kg/day, Day 0
# [26] = female, Crl:CD(SD)IGS BR, rat, in vivo, 25 mg/kg/day, females, 25 mg/kg/day, Day 177
# [27] = male, Crl:CD(SD)IGS BR, rat, in vivo, 8 mg/kg/day, males, 8 mg/kg/day, Day 0
# [28] = male, Crl:CD(SD)IGS BR, rat, in vivo, 8 mg/kg/day, males, 8 mg/kg/day, Day 177
# [29] = male, Crl:CD(SD)IGS BR, rat, in vivo, 25 mg/kg/day, males, 25 mg/kg/day, Day 0
# [30] = male, Crl:CD(SD)IGS BR, rat, in vivo, 25 mg/kg/day, males, 25 mg/kg/day, Day 177
structure (smiles),measurement,setting,value
"Clc1ccc([C@]23CNC[C@H]2C3)cc1Cl [amitifadine, (+)-1-(3,4-dichlorophenyl)-3-azabicyclo[3.1.0]hexane]",AUC0-24,"[1]; female, Crl:CD-1(ICR) BR, 10 mg/kg/day",2086 ng·h/mL
same,AUC0-24,"[1]; female, Crl:CD-1(ICR) BR, 30 mg/kg/day",6474 ng·h/mL
same,AUC0-24,"[1]; female, Crl:CD-1(ICR) BR, 100 mg/kg/day",26436 ng·h/mL
same,twitching (animals affected),"[1]; male, Crl:CD-1(ICR) BR, 150 mg/kg/day, 0 study day",3/10
same,AUC0-24,"[1]; male, Crl:CD-1(ICR) BR, 10 mg/kg/day",1907 ng·h/mL
same,AUC0-24,"[1]; male, Crl:CD-1(ICR) BR, 30 mg/kg/day",7250 ng·h/mL
same,AUC0-24,"[1]; male, Crl:CD-1(ICR) BR, 100 mg/kg/day",40306 ng·h/mL
same,AUC0-24,"[1]; male, Crl:CD-1(ICR) BR, 150 mg/kg/day",40248 ng·h/mL
same,absolute liver weight higher,[1]; 150 mg/kg/day,22%
same,absolute lymphocyte counts lower,[1]; 150 mg/kg/day,54%
same,percent neutrophil counts higher,[1]; 150 mg/kg/day,183%
same,percentage lymphocyte counts lower,[1]; 150 mg/kg/day,31%
same,NOAEL at 13 weeks,"[2]; both sexes, Crl:CD-1(ICR) BR, oral, 13 weeks",30 mg/kg/day
same,MTD at 13 weeks,"[2]; both sexes, Crl:CD-1(ICR) BR, po",100 mg/kg/day
same,anovulatory status (females affected),"[2]; female, Crl:CD-1(ICR) BR, 100 mg/kg/day, 13 weeks",5/10
same,AUC0-24,[2]; [6],1980 ng·h/mL
same,AUC(0-t),[2]; [6],2540 ng·h/mL
same,Cmax,[2]; [6],296 ng/mL
same,Tmax,[2]; [6],1 h
same,AUC0-24,[2]; [7],7629 ng·h/mL
same,AUC(0-t),[2]; [7],7120 ng·h/mL
same,Cmax,[2]; [7],972 ng/mL
same,Tmax,[2]; [7],2 h
same,AUC0-24,[2]; [8],17431 ng·h/mL
same,AUC(0-t),[2]; [8],20000 ng·h/mL
same,Cmax,[2]; [8],2450 ng/mL
same,Tmax,[2]; [8],1 h
same,ovary/oviduct weights lower,[2]; 100 mg/kg/day,23-28%
same,AUC0-24,[2]; [9],2141 ng·h/mL
same,AUC(0-t),[2]; [9],2050 ng·h/mL
same,Cmax,[2]; [9],288 ng/mL
same,Tmax,[2]; [9],1 h
same,AUC0-24,[2]; [10],6659 ng·h/mL
same,AUC(0-t),[2]; [10],7290 ng·h/mL
same,Cmax,[2]; [10],704 ng/mL
same,Tmax,[2]; [10],1 h
same,AUC0-24,[2]; [11],28952 ng·h/mL
same,AUC(0-t),[2]; [11],24100 ng·h/mL
same,Cmax,[2]; [11],2850 ng/mL
same,Tmax,[2]; [11],1 h
same,remains unchanged after 4 hour incubation,[3],82.4%
same,Cmax,[4]; [12],615 ng/mL
same,Tmax,[4]; [12],1 h
same,AUC(0-t),[4]; [12],1580 ng·h/mL
same,Cmax,[4]; [13],1150 ng/mL
same,Tmax,[4]; [13],1 h
same,AUC(0-t),[4]; [13],3990 ng·h/mL
same,Cmax,[4]; [14],3680 ng/mL
same,Tmax,[4]; [14],1.3 h
same,AUC(0-t),[4]; [14],10800 ng·h/mL
same,Cmax,[4]; [15],2420 ng/mL
same,Tmax,[4]; [15],1 h
same,AUC(0-t),[4]; [15],11100 ng·h/mL
same,Cmax,[4]; [16],5800 ng/mL
same,Tmax,[4]; [16],1.2 h
same,AUC(0-t),[4]; [16],19600 ng·h/mL
same,Cmax,[4]; [17],6880 ng/mL
same,Tmax,[4]; [17],1 h
same,AUC(0-t),[4]; [17],24100 ng·h/mL
same,body weight lower than control,"[4]; females, 6 mg/kg/day",12%
same,body weight lower than control,"[4]; females, 20 (15) mg/kg/day",14%
same,Cmax,[4]; [18],1040 ng/mL
same,Tmax,[4]; [18],1.3 h
same,AUC(0-t),[4]; [18],2130 ng·h/mL
same,Cmax,[4]; [19],844 ng/mL
same,Tmax,[4]; [19],1 h
same,AUC(0-t),[4]; [19],2220 ng·h/mL
same,Cmax,[4]; [20],3250 ng/mL
same,Tmax,[4]; [20],1.3 h
same,AUC(0-t),[4]; [20],10500 ng·h/mL
same,Cmax,[4]; [21],2780 ng/mL
same,Tmax,[4]; [21],1.3 h
same,AUC(0-t),[4]; [21],15800 ng·h/mL
same,Cmax,[4]; [22],4830 ng/mL
same,Tmax,[4]; [22],1.2 h
same,AUC(0-t),[4]; [22],18100 ng·h/mL
same,Cmax,[4]; [23],7980 ng/mL
same,Tmax,[4]; [23],1 h
same,AUC(0-t),[4]; [23],29600 ng·h/mL
same,body weight lower than control,"[4]; males, 6 mg/kg/day",5%
same,body weight lower than control,"[4]; males, 20 (15) mg/kg/day",15%
same,NOAEL at 26 weeks,"[5]; both sexes, Crl:CD(SD)IGS BR, rat, in vivo, oral gavage, 26 weeks",8 mg/kg/day
same,exposure in female vs male rats,[5]; equivalent dosages,≤ 2 fold
same,liver metabolic enzyme induction,"[5]; female rats, 25 mg/kg/day, 26 weeks","inducer of CYP1A, CYP2B, CYP2E, CYP3A, and CYP4A"
same,Tmax,[5]; [24],1 h
same,AUC(0-t),[5]; [24],9970 ng·h/mL
same,Tmax,"[5]; female, Crl:CD(SD)IGS BR, rat, in vivo, 8 mg/kg/day, females, 8 mg/kg/day, Day 177",2 h
same,Cmax,[5]; [25],2630 ng/mL
same,Tmax,[5]; [25],1 h
same,AUC(0-t),[5]; [25],23800 ng·h/mL
same,Cmax,[5]; [26],3500 ng/mL
same,Tmax,[5]; [26],1 h
same,AUC(0-t),[5]; [26],29700 ng·h/mL
same,Tmax,"[5]; female, Crl:CD(SD)IGS BR, rat, in vivo, […], females, […], Day 0",2 h
same,Tmax,"[5]; female, Crl:CD(SD)IGS BR, rat, in vivo, […], females, […], Day 177",1 h
same,AUC(0-t),"[5]; female, Crl:CD(SD)IGS BR, rat, plasma, 8 mg/kg/day, females, 8 mg/kg/day, Day 177",11100 ng·h/mL
same,mean ovary/oviduct weights higher,"[5]; females, 25 mg/kg/day",12%
same,mean body weight lower than control,"[5]; females, 25 mg/kg/day",10%
same,mean cumulative body weight gain lower,"[5]; females, 25 mg/kg/day",14%
same,liver metabolic enzyme induction,"[5]; male rats, 25 mg/kg/day, 26 weeks","inducer of CYP1A, CYP2B, and CYP2E"
same,Tmax,[5]; [27],1 h
same,AUC(0-t),[5]; [27],5380 ng·h/mL
same,Cmax,[5]; [28],954 ng/mL
same,Tmax,[5]; [28],1 h
same,Cmax,[5]; [29],2600 ng/mL
same,Tmax,[5]; [29],1 h
same,AUC(0-t),[5]; [29],18100 ng·h/mL
same,Cmax,[5]; [30],2600 ng/mL
same,AUC(0-t),[5]; [30],17800 ng·h/mL
same,Tmax,"[5]; male, Crl:CD(SD)IGS BR, rat, in vivo, […], males, […], Day 0",1 h
same,Tmax,"[5]; male, Crl:CD(SD)IGS BR, rat, in vivo, […], males, […], Day 177",1 h
same,AUC(0-t),"[5]; male, Crl:CD(SD)IGS BR, rat, plasma, 8 mg/kg/day, males, 8 mg/kg/day, Day 177",7130 ng·h/mL
same,mean testes weights higher,"[5]; males, 25 mg/kg/day",9.5%
same,mean body weight lower than control,"[5]; males, 25 mg/kg/day",12%
same,mean cumulative body weight gain lower,"[5]; males, 25 mg/kg/day",18%
same,NOEL,"[5]; oral gavage, 26 weeks",2.5 mg/kg/day
